The nature of assay [1]: Tested for inhibition of substrate hydrolysis in the presence of porcine kidney esterase at a concentration of 1 uM.
The nature of assay [2]: Tested for inhibition of substrate hydrolysis in the presence of porcine kidney esterase at a concentration of 9 uM.
The nature of assay [3]: Tested for inhibition of substrate hydrolysis in the presence of porcine kidney esterase at a concentration of 45 nM.

In general, Ki refers to a measure of affinity in units of concentration, obtained from inhibition or displacement.

Molecules are shown by their SMILES.

Consider `COC(=O)CCC(=O)N[C@@H](C)C(=O)N[C@@H](C)C(=O)N1CCC[C@H]1C(=O)N/C(=C(/OC(C)=O)C(=O)OC)C(C)C` [(E)-2-Acetoxy-3-[((S)-1-{(S)-2-[(S)-2-(3-methoxycarbonyl-propionylamino)-propionylamino]-propionyl}-pyrrolidine-2-carbonyl)-amino]-4-methyl-pent-2-enoic acid methyl ester], for which the Ki in assay [1] and in assay [2] was 130 nM in each case. On to `COC(=O)/C(OC(C)=O)=C(\NC(=O)[C@@H]1CCCN1C(=O)[C@H](C)NC(=O)[C@H](C)NC(=O)c1ccc(C(=O)NS(=O)(=O)c2ccc(Cl)cc2)cc1)C(C)C` [(E)-2-Acetoxy-3-{[(S)-1-((S)-2-{(S)-2-[4-(4-chloro-benzenesulfonylaminocarbonyl)-benzoylamino]-propionylamino}-propionyl)-pyrrolidine-2-carbonyl]-amino}-4-methyl-pent-2-enoic acid methyl ester], for which the inhibition constant (Ki) in assay [3] came to 13 nM.

The record behind these values is BindingDB's records for doi:10.1016/s0960-894x(97)10184-6 (Cinc, 1999).
